Read-outs that look alike come from different tables or passages of the source.
Key:
[1] = test system: JNK2, RIPK2, ERK2, ROCK2; assay: immunoblot of IVA1/IVA2 eluates from V16742 matrix, HeLa lysate; format: binding, human
Experimental: The proteins retained on the beads were immunoblotted with specific antibodies for JNK2, RIPK2, ERK2 and ROCK2, the targets with affinities ranging from high to very low as identified/predicted by mass spectrometry.
Immunoblotting of affinity chromatography eluates from either IVA1 or IVA2 setting was performed with the following antibodies: Rabbit anti-casein kinase Iα, Rabbit anti-JNK2, Rabbit anti-ROCK-II (all from Cell Signaling Technology, Inc.), anti-GSK3β, anti-RIPK2, anti-GAK, anti-ERK2 (Santa Cruz)

[2] = target: T1, ADK (IPI00290279) (Homo sapiens, UniProt P55263); assay: binding to VI16742 beads (HeLa lysate, SILAC MS)
T1 construct: endogenous in cells; host or cells: HeLa S3 cell lysate

[3] = target: T2, CaMKK1 (Homo sapiens, UniProt Q8N5S9); assay: binding to immobilized V16742 (IVA1/IVA2, HeLa lysate, MS)
T2 construct: endogenous in cells; host or cells: HeLa S3

[4] = target: T3, CDK7 (Homo sapiens, UniProt P50613); assay: as above
T3 construct: endogenous in cells; host or cells: HeLa S3

[5] = target: T4, PKACb (PRKACB, IPI00376119) (Homo sapiens, UniProt P22694); assay: binding to VI16742 beads (HeLa lysate, SILAC MS)
T4 construct: endogenous in cells; host or cells: HeLa S3
Excerpt: (§1) In an alternative implementation of the chemical proteomic approach according to the invention, the broadly-selective pyrido[2,3-d]pyrimidine-based kinase inhibitor VI16742 has been used for affinity capture (FIG. 10a). […] As shown by gene ontology analysis, the corresponding molecular functions were highly over-represented in proteins specifically retained by the inhibitor resin (FIG. 10b).

[6] = target: T5, DCI (IPI00300567) (Homo sapiens, UniProt P42126); assay: binding to VI16742 beads (HeLa lysate, SILAC MS)
T5 construct: endogenous in cells; host or cells: HeLa S3
T5 sequence (P42126 42-302): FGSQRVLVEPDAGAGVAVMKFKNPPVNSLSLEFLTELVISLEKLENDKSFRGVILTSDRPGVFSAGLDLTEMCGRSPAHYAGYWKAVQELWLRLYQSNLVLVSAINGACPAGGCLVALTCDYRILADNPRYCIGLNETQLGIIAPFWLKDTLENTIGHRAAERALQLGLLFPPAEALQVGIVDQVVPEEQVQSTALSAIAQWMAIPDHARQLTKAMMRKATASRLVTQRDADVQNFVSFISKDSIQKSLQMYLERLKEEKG
Excerpt: as §1

[7] = target: T6, DAPK2 (IPI00033388) (Homo sapiens, UniProt Q9UIK4); assay: binding to VI16742 beads (HeLa lysate, SILAC MS)
T6 construct: endogenous in cells; host or cells: HeLa S3
Excerpt: as §1

[8] = target: T7, CHED (CDC2L5, IPI00456970) (Homo sapiens, UniProt Q14004); assay: binding to VI16742 beads (HeLa lysate, SILAC MS)
T7 construct: endogenous in cells; host or cells: HeLa S3 cell lysate
Excerpt: as §1

[9] = target: p38a (MAPK14, IPI00221141) (Homo sapiens, UniProt Q16539); assay: binding to VI16742 beads (HeLa lysate, SILAC MS)
Excerpt: as §1

[10] = target: T8, LOK (STK10, IPI00304742) (Homo sapiens, UniProt O94804); assay: binding to VI16742 beads (HeLa lysate, SILAC MS)
T8 construct: endogenous in cells; host or cells: HeLa S3
Excerpt: as §1

[11] = target: T9, PKACa (PRKACA, IPI00396630) (Homo sapiens, UniProt P17612); assay: binding to VI16742 beads (HeLa lysate, SILAC MS)
T9 construct: endogenous in cells; host or cells: HeLa S3
Excerpt: as §1

[12] = target: T10, TNIK/ZC2 (TNIK, IPI00514275) (Homo sapiens, UniProt Q9UKE5); assay: binding to VI16742 beads (HeLa lysate, SILAC MS)
T10 construct: endogenous in cells; host or cells: HeLa S3
Excerpt: as §1

[13] = target: CK1a (Homo sapiens, UniProt P48729); assay: binding to immobilized V16742 (IVA1/IVA2, HeLa lysate, MS)
[14] = target: SPR (Homo sapiens, UniProt P35270)
[15] = target: RPL7 (Homo sapiens, UniProt P18124)
[16] = target: RPL27A (Homo sapiens, UniProt P46776)
[17] = control beads vs first incubation
[18] = average of two experiments, read-out: Kd Avg

T7 sequence (Q14004 whole entry): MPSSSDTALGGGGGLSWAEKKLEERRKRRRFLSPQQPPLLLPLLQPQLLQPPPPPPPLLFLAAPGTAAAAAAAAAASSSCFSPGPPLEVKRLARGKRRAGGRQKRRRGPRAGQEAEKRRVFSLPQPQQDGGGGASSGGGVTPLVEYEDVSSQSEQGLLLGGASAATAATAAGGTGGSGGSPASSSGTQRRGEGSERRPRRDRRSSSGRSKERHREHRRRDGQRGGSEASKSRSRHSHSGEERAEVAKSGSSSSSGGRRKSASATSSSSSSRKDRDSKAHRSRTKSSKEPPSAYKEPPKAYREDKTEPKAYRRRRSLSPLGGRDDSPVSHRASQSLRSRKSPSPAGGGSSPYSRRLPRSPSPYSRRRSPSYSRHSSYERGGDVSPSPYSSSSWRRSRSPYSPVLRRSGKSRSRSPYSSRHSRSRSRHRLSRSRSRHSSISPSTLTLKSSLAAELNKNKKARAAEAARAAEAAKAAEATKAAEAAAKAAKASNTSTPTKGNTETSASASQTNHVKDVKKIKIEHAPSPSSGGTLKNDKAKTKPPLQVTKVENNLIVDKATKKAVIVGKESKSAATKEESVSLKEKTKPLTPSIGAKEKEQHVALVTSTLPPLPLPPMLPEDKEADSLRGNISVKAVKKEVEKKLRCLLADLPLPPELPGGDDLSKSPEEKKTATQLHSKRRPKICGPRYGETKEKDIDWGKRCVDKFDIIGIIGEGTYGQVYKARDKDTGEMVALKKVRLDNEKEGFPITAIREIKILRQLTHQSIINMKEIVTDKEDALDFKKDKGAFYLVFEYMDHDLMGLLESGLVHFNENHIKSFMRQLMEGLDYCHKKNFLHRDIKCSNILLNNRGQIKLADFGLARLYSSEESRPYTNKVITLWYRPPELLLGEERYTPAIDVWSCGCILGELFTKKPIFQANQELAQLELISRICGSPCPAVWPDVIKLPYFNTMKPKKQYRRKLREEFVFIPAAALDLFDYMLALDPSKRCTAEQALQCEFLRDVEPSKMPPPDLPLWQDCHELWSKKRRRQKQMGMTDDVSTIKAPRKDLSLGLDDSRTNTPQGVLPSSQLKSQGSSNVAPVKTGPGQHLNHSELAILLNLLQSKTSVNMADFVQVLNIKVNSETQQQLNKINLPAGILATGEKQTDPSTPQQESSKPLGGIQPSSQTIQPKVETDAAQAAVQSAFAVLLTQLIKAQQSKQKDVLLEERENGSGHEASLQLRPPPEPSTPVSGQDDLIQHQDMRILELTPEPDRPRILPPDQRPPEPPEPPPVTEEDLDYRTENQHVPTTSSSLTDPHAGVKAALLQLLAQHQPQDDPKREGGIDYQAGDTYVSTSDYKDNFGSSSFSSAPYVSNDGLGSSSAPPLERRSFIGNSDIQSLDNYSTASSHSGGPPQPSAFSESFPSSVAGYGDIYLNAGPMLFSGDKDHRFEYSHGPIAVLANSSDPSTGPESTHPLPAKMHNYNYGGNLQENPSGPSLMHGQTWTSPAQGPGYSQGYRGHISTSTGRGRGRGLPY
p38a (MAPK14, IPI00221141), sequence (Q16539 1-360 isoform Q16539-2): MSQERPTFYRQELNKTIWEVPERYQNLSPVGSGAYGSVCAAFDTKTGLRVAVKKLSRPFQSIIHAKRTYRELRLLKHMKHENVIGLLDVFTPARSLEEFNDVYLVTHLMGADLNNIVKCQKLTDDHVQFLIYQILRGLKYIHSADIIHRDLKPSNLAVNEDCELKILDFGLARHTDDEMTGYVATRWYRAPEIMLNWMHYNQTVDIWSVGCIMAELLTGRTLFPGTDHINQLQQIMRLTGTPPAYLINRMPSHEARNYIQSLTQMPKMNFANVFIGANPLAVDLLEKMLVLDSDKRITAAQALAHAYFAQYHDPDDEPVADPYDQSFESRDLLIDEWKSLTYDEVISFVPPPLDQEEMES
T6 sequence (Q9UIK4 whole entry): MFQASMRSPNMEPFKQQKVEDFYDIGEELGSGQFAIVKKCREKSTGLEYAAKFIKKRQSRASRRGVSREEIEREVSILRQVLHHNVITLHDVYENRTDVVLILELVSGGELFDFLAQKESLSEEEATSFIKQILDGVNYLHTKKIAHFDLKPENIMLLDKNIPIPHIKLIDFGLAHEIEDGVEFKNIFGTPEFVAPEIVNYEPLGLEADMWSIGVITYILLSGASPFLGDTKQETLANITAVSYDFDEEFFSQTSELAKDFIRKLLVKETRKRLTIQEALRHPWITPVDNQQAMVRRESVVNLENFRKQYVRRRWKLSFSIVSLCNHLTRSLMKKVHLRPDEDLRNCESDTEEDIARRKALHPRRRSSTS
SPR, sequence (P35270 whole entry): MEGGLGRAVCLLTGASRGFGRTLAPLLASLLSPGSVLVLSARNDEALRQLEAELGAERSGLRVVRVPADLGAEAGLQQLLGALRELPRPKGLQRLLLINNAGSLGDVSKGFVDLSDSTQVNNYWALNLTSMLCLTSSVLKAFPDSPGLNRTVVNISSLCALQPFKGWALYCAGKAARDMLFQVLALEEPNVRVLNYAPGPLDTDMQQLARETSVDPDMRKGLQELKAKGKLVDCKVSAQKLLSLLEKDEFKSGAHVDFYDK
T3 sequence (P50613 whole entry): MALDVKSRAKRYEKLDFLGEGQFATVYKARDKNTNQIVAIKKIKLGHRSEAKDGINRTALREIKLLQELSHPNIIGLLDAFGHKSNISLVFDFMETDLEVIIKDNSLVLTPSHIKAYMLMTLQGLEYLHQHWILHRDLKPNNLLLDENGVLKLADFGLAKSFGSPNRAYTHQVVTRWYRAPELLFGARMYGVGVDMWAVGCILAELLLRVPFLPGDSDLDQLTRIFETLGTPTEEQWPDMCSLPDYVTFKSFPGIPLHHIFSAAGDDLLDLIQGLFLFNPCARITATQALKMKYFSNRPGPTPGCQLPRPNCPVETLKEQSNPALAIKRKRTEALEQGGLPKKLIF
T10 sequence (Q9UKE5 whole entry): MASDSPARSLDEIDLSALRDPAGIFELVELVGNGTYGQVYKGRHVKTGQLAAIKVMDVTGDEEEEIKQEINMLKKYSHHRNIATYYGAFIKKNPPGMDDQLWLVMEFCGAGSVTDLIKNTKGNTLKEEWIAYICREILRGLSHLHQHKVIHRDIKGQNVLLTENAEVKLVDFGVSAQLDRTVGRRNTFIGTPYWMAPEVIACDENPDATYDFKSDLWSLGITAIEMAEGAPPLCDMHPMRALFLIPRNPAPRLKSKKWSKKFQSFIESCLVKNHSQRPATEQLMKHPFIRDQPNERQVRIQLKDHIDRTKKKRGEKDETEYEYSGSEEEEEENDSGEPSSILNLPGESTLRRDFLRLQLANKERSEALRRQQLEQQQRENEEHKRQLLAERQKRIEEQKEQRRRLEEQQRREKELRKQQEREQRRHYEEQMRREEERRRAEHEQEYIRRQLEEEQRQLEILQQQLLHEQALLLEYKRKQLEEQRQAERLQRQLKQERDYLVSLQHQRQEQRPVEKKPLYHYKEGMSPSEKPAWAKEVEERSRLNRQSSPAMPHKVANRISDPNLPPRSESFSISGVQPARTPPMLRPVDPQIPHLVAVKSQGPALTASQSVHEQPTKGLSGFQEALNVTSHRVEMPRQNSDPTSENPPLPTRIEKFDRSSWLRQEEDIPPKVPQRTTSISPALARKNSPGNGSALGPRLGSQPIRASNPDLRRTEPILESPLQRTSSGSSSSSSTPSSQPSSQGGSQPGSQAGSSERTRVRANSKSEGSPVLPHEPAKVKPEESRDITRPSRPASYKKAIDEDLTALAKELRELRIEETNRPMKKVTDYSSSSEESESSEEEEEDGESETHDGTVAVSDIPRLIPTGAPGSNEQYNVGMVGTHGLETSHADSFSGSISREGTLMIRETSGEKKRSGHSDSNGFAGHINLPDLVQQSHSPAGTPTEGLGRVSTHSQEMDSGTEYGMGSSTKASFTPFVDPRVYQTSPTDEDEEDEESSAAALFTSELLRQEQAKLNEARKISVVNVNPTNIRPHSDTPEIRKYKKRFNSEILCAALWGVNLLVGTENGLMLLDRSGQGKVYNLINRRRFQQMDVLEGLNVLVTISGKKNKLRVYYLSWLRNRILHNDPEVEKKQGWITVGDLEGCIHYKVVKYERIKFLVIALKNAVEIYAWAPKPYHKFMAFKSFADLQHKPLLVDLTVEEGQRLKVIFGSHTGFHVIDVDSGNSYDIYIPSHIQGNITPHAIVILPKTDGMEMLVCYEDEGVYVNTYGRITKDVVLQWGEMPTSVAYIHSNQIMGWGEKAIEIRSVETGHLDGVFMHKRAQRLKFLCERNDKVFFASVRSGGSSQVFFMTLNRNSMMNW
T2 sequence (Q8N5S9 whole entry): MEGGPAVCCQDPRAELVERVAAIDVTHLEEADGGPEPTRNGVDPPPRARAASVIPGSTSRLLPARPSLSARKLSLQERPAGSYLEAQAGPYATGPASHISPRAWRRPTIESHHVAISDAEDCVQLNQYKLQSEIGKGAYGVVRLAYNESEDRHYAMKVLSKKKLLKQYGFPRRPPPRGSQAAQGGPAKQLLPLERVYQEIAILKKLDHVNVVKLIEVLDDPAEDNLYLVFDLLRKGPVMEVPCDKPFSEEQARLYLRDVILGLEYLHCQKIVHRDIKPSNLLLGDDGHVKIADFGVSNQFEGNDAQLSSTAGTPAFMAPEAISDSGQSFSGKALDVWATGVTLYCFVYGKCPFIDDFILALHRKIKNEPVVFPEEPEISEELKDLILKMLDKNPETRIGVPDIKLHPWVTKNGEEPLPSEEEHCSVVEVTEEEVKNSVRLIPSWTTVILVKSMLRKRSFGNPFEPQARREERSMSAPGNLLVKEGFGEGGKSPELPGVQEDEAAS
CK1a, sequence (P48729 whole entry): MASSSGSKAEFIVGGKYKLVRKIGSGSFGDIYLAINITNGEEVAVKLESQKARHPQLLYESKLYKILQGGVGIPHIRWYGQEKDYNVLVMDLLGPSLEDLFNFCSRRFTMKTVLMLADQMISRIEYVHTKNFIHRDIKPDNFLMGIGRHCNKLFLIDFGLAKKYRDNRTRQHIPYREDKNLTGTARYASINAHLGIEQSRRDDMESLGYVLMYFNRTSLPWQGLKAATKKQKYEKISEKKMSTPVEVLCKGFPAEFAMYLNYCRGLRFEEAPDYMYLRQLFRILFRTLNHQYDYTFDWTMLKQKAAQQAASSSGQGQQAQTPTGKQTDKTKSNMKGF

Compound: CC(C)n1c(=O)ccc2cnc(Nc3ccc(OCCN)cc3)nc21 [V16742]
- interaction of kinases with V16742 matrix, immunoblot [1]: specifically interacted with the V16742 matrix
- r (5 h/2.5 h INC. TIME) ([2]; 5 h vs 2.5 h incubation time): 1.63
- rAVERAGE (CTRL/1 INC) [2, 17]: 0.05
- Ki ([2]; immobilized VI16742): 94.2 µM
- rAVERAGE (2 INC/1 INC) ([2]; second vs first incubation): 0.64
- Percent bound at various 16742 conc ([3]; Experiment 1, 1.87 μM 16742): 2.08%
- Percent bound at various 16742 conc ([3]; Experiment 1, 8.74 μM 16742): 10.67%
- Percent bound at various 16742 conc ([3]; Experiment 1, 52 μM 16742): 63.34%
- Kd ([3]; Experiment 1, read-out: Kd): 37.9 µM
- Percent bound at various 16742 conc ([3]; Experiment 2, 1.87 μM 16742): 1.46%
- Percent bound at various 16742 conc ([3]; Experiment 2, 8.74 μM 16742): 6.65%
- Percent bound at various 16742 conc ([3]; Experiment 2, 52 μM 16742): 47.32%
- Kd ([3]; Experiment 2, read-out: Kd): 63.9 µM
- Kd [3, 18]: 50.9 µM
- Percent bound at various 16742 conc ([4]; Experiment 1, 1.87 μM 16742): 5.76%
- Percent bound at various 16742 conc ([4]; Experiment 1, 8.74 μM 16742): 22.04%
- Percent bound at various 16742 conc ([4]; Experiment 1, 52 μM 16742): 53.96%
- Kd ([4]; Experiment 1, read-out: Kd): 39.8 µM
- Percent bound at various 16742 conc ([4]; Experiment 2, 1.87 μM 16742): 2.34%
- Percent bound at various 16742 conc ([4]; Experiment 2, 8.74 μM 16742): 13.18%
- Percent bound at various 16742 conc ([4]; Experiment 2, 52 μM 16742): 45.57%
- Kd ([4]; Experiment 2, read-out: Kd): 61.5 µM
- Kd [4, 18]: 50.7 µM
- rAVERAGE (CTRL/1 INC) [5, 17]: 0.01
- Ki ([5]; immobilized VI16742): 390 µM
- rAVERAGE (2 INC/1 INC) ([5]; second vs first incubation): 0.88
- r (3 MG/1 MG LYSATE) ([6]; 3 mg vs 1 mg lysate): 3.25
- r (5 h/2.5 h INC. TIME) ([6]; 5 h vs 2.5 h incubation time): 1.68
- rAVERAGE (CTRL/1 INC) [6, 17]: 0.04
- Ki ([6]; immobilized VI16742): 236 µM
- rAVERAGE (2 INC/1 INC) ([6]; second vs first incubation): 0.82
- rAVERAGE (CTRL/1 INC) [7, 17]: 0.11
- Ki ([7]; immobilized VI16742): 171 µM
- rAVERAGE (2 INC/1 INC) ([7]; second vs first incubation): 0.77
- r (3 MG/1 MG LYSATE) ([8]; 3 mg vs 1 mg lysate): 5.31
- r (5 h/2.5 h INC. TIME) ([8]; 5 h vs 2.5 h incubation time): 1.42
- rAVERAGE (CTRL/1 INC) [8, 17]: 0.05
- Ki ([8]; immobilized VI16742): 84.6 µM
- rAVERAGE (2 INC/1 INC) ([8]; second vs first incubation): 0.62
- r (5 h/2.5 h INC. TIME) ([9]; 5 h vs 2.5 h incubation time): 2.16
- rAVERAGE (CTRL/1 INC) [9, 17]: 0.10
- Ki ([9]; immobilized VI16742): 92.8 µM
- rAVERAGE (2 INC/1 INC) ([9]; second vs first incubation): 0.64
- rAVERAGE (CTRL/1 INC) [10, 17]: 0.07
- Ki ([10]; immobilized VI16742): 164 µM
- rAVERAGE (2 INC/1 INC) ([10]; second vs first incubation): 0.76
- r (3 MG/1 MG LYSATE) ([11]; 3 mg vs 1 mg lysate): 2.18
- r (5 h/2.5 h INC. TIME) ([11]; 5 h vs 2.5 h incubation time): 1.76
- rAVERAGE (CTRL/1 INC) [11, 17]: 0.04
- Ki ([11]; immobilized VI16742): 305 µM
- rAVERAGE (2 INC/1 INC) ([11]; second vs first incubation): 0.85
- r (5 h/2.5 h INC. TIME) ([12]; 5 h vs 2.5 h incubation time): 1.27
- rAVERAGE (CTRL/1 INC) [12, 17]: 0.19
- Ki ([12]; immobilized VI16742): 108 µM
- rAVERAGE (2 INC/1 INC) ([12]; second vs first incubation): 0.67

Compound: CC(C)n1c(=O)ccc2cnc(Nc3ccc(OCCN)cc3)nc21 [compound 16742]
- Percent bound at 1.87 μM 16742 conc ([13]; EXPERIMENT 1): 6.51%
- Percent bound at 8.74 μM 16742 conc ([13]; EXPERIMENT 1): 31.78%
- Percent bound at 52 μM 16742 conc ([13]; EXPERIMENT 1): 60.94%
- Kd ([13]; EXPERIMENT 1, read-out: Kd): 20.8 µM
- Percent bound at 1.87 μM 16742 conc ([13]; EXPERIMENT 2): 5.11%
- Percent bound at 8.74 μM 16742 conc ([13]; EXPERIMENT 2): 34.46%
- Percent bound at 52 μM 16742 conc ([13]; EXPERIMENT 2): 83.66%
- Kd ([13]; EXPERIMENT 2, read-out: Kd): 16.8 µM
- Kd ([13]; read-out: Kd Avg): 18.8 µM

Compound: COc1cc2ncnc(Nc3ccc(F)c(Cl)c3)c2cc1OCCCN1CCOCC1 [gefitinib]
- rAVERAGE (10 nM/0 nM Gef.) [14]: 1.04
- rAVERAGE (100 nM/0 nM Gef.) [14]: 1.10
- rAVERAGE (1000 nM/0 nM Gef.) [14]: 1.01
- rAVERAGE (10000 nM/0 nM Gef.) [14]: 0.77
- rAVERAGE (10 nM/0 nM Gef.) [15]: 0.84
- rAVERAGE (100 nM/0 nM Gef.) [15]: 1.08
- rAVERAGE (1000 nM/0 nM Gef.) [15]: 0.86
- rAVERAGE (10000 nM/0 nM Gef.) [15]: 0.98
- rAVERAGE (10 nM/0 nM Gef.) [16]: 0.87
- rAVERAGE (100 nM/0 nM Gef.) [16]: 1.05
- rAVERAGE (1000 nM/0 nM Gef.) [16]: 0.81
- rAVERAGE (10000 nM/0 nM Gef.) [16]: 1.03

From patent publication US8959984B2, “Proteome-wide quantification of small molecule binding to cellular target proteins” (priority 2007, dated 2015)
